Laboratory results taken from ChEMBL document CHEMBL3632547, “Discovery of 3,5-substituted 6-azaindazoles as potent pan-Pim inhibitors” (Bioorg Med Chem Lett, 2015).

Columns and labels:
[1] = molecular target: Serine/threonine-protein kinase pim-2 (Homo sapiens, UniProt Q9P1W9)
[2] = molecular target: Serine/threonine-protein kinase pim-3 (Homo sapiens, UniProt Q86V86)
[3] = molecular target: Serine/threonine-protein kinase pim-1 (Homo sapiens, UniProt P11309)
[4] = Cytotoxicity against wild type interleukin-3 dependent mouse BA/F3 cells after 72 hrs by CellTiter-Glo assay; type: functional, cell-based; settings: BaF3, 72 h
[5] = Cytotoxicity against interleukin-3 independent mouse BA/F3 cells expressing PIM1 after 72 hrs by CellTiter-Glo assay; type: functional, cell-based; settings: BaF3, 72 h
[6] = tested on: BaF3; assay: Ratio of IC50 for wild type interleukin-3 dependent mouse BA/F3 cells to IC50 for interleukin-3 independent mouse BA/F3 cells expressing PIM1; type: functional
[7] = Cytotoxicity against human MM1S cells after 72 hrs by CellTiter-Glo assay; type: functional, cell-based; settings: MM1.S
[8] = Plasma clearance in rat; type: ADME, organism-based
[9] = Oral bioavailability in rat; type: ADME, organism-based; settings: in vivo
[10] = Plasma protein binding in rat; type: ADME, cell-free; settings: read-out: PPB (converted)
[11] = Intrinsic clearance from rat liver microsomes; type: ADME; settings: read-out: CLH
[12] = Apparent permeability from apical to basolateral side in MDCK cells; type: ADME, cell-based, Canis lupus familiaris; settings: dog
[13] = Efflux ratio of apparent permeability from basolateral to apical over apical to basolateral side in MDCK cells; type: ADME, cell-based, Canis lupus familiaris; settings: dog

Chain of Serine/threonine-protein kinase pim-1 (P11309 whole entry): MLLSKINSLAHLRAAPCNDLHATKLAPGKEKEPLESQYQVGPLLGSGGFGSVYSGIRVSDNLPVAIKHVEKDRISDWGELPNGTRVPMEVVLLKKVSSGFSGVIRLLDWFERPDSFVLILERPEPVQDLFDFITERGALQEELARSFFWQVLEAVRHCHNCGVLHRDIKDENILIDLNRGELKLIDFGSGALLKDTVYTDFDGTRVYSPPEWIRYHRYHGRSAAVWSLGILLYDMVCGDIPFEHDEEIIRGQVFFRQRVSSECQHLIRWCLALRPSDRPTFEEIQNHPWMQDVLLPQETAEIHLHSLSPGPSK
Chain of Serine/threonine-protein kinase pim-2 (Q9P1W9 whole entry): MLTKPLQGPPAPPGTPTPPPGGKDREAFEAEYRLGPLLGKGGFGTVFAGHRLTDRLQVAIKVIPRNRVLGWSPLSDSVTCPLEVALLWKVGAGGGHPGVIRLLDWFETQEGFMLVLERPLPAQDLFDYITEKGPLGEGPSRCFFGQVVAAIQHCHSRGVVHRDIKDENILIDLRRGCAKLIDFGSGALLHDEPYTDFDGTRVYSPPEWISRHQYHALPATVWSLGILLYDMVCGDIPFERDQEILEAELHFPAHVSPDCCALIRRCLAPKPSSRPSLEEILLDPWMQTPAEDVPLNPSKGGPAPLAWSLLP

Row | SMILES | Ki [1] [nM] | Ki [2] [nM] | Ki [3] [nM] | other results
1 | Cn1cc(-c2cc3c(-c4cccc(O[C@@H]5CCCNC5)n4)n[nH]c3cn2)cn1 | 6.2 | 0.16 | – | –
2 | Cn1cc(-c2cc3c(-c4cccc(N5CCC[C@@H](N)C5)n4)n[nH]c3cn2)cn1 | 0.72 | 0.021 | – | –
3 | Cn1cc(-c2cc3c(-c4cccc(N5CC[C@@H](N)C5)n4)n[nH]c3cn2)cn1 | 0.43 | 0.015 | 0.035 | –
4 | Cn1cc(-c2cc3c(-c4cccc(N5CCC[C@H](N)C5)n4)n[nH]c3cn2)cn1 | 0.26 | 0.015 | – | –
5 | Cn1cc(-c2cc3c(-c4cccc(N5CCC[C@@H](N)C5)c4)n[nH]c3cn2)cn1 | 1.25 | 0.29 | – | –
6 | Cc1ccc(-c2n[nH]c3cnc(-c4cnn(C)c4)cc23)nc1N1CCC[C@H](N)C1 | 0.088 | 0.006 | – | –
7 | CCn1cc(-c2cc3c(-c4cccc(N5CCNCC5)n4)n[nH]c3cn2)cn1 | 0.473 | 0.041 | – | IC50 [4]: 5400 nM; IC50 [5]: 77 nM; Ratio IC50 [6]: 70; IC50 [7]: 640 nM; clearance [8]: 14 mL/min/kg; bioavailability [9]: 1%; fraction unbound [10]: 0.022; CLint scaled [11]: 150 mL/min/kg; Papp A→B [12]: 0.5 ×10⁻⁶ cm/s; efflux ratio [13]: 51
8 | c1cc(-c2n[nH]c3cnc(C4CCCO4)cc23)nc(N2CCNCC2)c1 (stereo unspecified) | 82 | – | 8.5 | –
9 | c1cc(-c2n[nH]c3cnc(C4CCCOC4)cc23)nc(N2CCNCC2)c1 (stereo unspecified) | 26 | 1 | – | –
10 | O=C1CN(c2cc3c(-c4cccc(N5CCNCC5)n4)n[nH]c3cn2)CCN1 | 17 | 1.4 | – | –
11 | c1cc(-c2n[nH]c3cnc(N4CCOCC4)cc23)nc(N2CCNCC2)c1 | 14 | 4.4 | – | –
12 | Cn1cc(-c2cc3c(-c4ccccn4)n[nH]c3cn2)cn1 | 48 | 3.7 | – | –
13 | Cn1cc(-c2cc3c(-c4cccc(N5CCCNCC5)n4)n[nH]c3cn2)cn1 | 0.17 | 0.013 | 0.02 | –
14 | Cn1cc(-c2cc3c(-c4cccc(C5CCNCC5)n4)n[nH]c3cn2)cn1 | 2.2 | 0.12 | – | –
15 | CCn1cncc(-c2cc3c(-c4cccc(N5CCNCC5)n4)n[nH]c3cn2)c1=O | 0.145 | 0.07 | – | –
16 | Cn1cc(-c2cc3c(-c4cccc(N5CCNCC5)n4)n[nH]c3cn2)cn1 | 0.58 | 0.017 | – | –
17 | N#CCn1cc(-c2cc3c(-c4cccc(N5CCNCC5)n4)n[nH]c3cn2)cn1 | 0.127 | 0.013 | – | –
18 | c1cc(-c2n[nH]c3cnc(-c4cnn(CC5CC5)c4)cc23)nc(N2CCNCC2)c1 | 0.253 | 0.016 | – | –
19 | c1cc(-c2n[nH]c3cnc(-n4ccnc4)cc23)nc(N2CCNCC2)c1 | 5.4 | 0.65 | – | –
20 | NC(=O)Cc1cc2c(-c3cccc(N4CCNCC4)n3)n[nH]c2cn1 | 1100 | 115 | – | –

Row | SMILES | Ki [1] [nM] | Ki [2] [nM] | Ki [3] [nM] | other results
21 | NC(=O)Nc1cc2c(-c3cccc(N4CCNCC4)n3)n[nH]c2cn1 | 1.1 | 0.68 | – | –
22 | CN1C(=O)CN(c2cc3c(-c4cccc(N5CCNCC5)n4)n[nH]c3cn2)C1=O | 33 | 3.3 | – | –
23 | Fc1ccccc1-c1n[nH]c2cnc(-c3cnccc3O[C@@H]3CCCNC3)cc12 | 1.7 | 0.11 | 3.4 | –
24 | Cc1n[nH]c2cnc(-c3cncc(N4CCC(N)CC4)n3)cc12 | 170 | 9 | 6 | –
25 | NC1CCN(c2cncc(-c3cc4c(-c5ccccc5F)n[nH]c4cn3)n2)CC1 | 3 | 0.1 | 0.1 | –
26 | NCCNc1cccc(-c2n[nH]c3cnc(-c4cccnc4)cc23)n1 | 3 | 0.2 | 0.3 | –
27 | c1cncc(-c2cc3c(-c4cccc(N5CCNCC5)n4)n[nH]c3cn2)c1 | 0.5 | 0.01 | 0.04 | –
28 | Cc1cncc(-c2cc3c(-c4cccc(N5CCNCC5)n4)n[nH]c3cn2)c1 | 0.3 | 0.037 | – | –
29 | Cc1cncc(-c2cc3c(-c4cccc(N5CCNCC5)n4)n[nH]c3cn2)n1 | 0.049 | 0.01 | – | –
30 | c1cncc(-c2cc3cn[nH]c3cn2)c1 | 6000 | 1800 | 1300 | –
31 | O=C(Nc1cn[nH]c1)c1cccnc1 | 15000 | 2900 | 3300 | –
32 | Cc1n[nH]c2cnc(-c3cccnc3)cc12 | 800 | 300 | 200 | –
33 | Cc1c[nH]c2cnc(-c3cccnc3)cc12 | 3900 | 1500 | 800 | –
34 | Cc1n[nH]c2cnc(-c3cn[nH]c3)cc12 | 900 | 400 | – | –
35 | Cc1n[nH]c2ccc(-c3cn[nH]c3)cc12 | 2700 | 3100 | 3200 | –
36 | c1ccc(-c2n[nH]c3cnc(-c4cccnc4)cc23)cc1 | 50 | 5 | 10 | –
37 | c1ccc(-c2n[nH]c3cnc(-c4cccnc4)cc23)nc1 | 70 | – | 10 | –
38 | Cc1n[nH]c2cnc(-c3cnccc3N3CCC[C@H](N)C3)cc12 | 8300 | 5000 | – | –
39 | N[C@H]1CCCN(c2ccncc2-c2cc3c(-c4ccccc4F)n[nH]c3cn2)C1 | 35 | 6 | – | –
